Data published in US9067898B1, “Isothiazole derivatives as GPR120 agonists for the treatment of type II diabetes” (Janssen Pharmaceutica NV, priority 2014, dated 2015).

What was measured:
Human GPR120 short form = molecular target: T1, Human GPR120 short form (Homo sapiens, UniProt Q5NUL3); test: Human GPR120 calcium flux assay (FLIPR), Procedure Calcium A; type: cell-based; conditions: HEK-293 cells expressing human GPR120 short form, 2500 cells/well; read-out: GPR120 Ca2+ Assay A EC50
T1 construct: expressed in transfected cells
T1 sequence (Q5NUL3 1-361): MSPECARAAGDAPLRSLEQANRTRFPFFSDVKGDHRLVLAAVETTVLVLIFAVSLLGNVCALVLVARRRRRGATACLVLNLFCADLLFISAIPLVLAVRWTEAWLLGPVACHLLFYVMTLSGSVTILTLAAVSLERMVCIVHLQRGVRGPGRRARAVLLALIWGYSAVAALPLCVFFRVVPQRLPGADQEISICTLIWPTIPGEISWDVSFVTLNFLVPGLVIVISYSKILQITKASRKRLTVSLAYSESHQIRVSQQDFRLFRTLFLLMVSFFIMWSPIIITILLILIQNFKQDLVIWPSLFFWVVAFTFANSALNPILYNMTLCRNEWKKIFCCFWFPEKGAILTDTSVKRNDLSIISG
How it was run: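 HEK293 cells stably expressing the short isoform (NM_001195755.1), 2500/well, starved 1 h, then loaded with Fluo-4 NW plus probenecid (30 min 37 °C, 15 min RT). Compound solutions 0.012–100 μM, 0.2% DMSO final; FLIPR read 300 s after addition. EC50 from Fmax−Fmin fitted to variable-slope sigmoid (Hill <2).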

C57bl/6J mice = test: C57bl6 mouse OGTT; type: in vivo; conditions: 3 mg/kg dosed 30 min before glucose PO 3 g/kg
Experimental: Male, C57bl/6J Mice were ordered in at 8 weeks of age from Jackson Labs. Individual mice weighed anywhere in the range of 25-30 grams on study day. The mice were fasted, with removal of food occurring at 7 am on the morning of the study. Animals were moved into the room at 10:00 am, to give them time to acclimate. Glucose (insulin syringes) was drawn up either the night before or the morning of the study. Glucose was dosed (IP) at 1.5 g/kg at 7.5 ml/kg (20% glucose straight TEKNOVA, 250 ml sterile bottle w/catalogue number G0525). Test compounds were kept spinning and were only drawn into the syringes prior to study commencement. Animals were bled via tail snip to determine basal glucose levels prior to dosing of treatments. An Ascensia BREEZE Blood Glucose Monitoring System by Bayer (using unique 10-test disks) was used for determining glucose levels. The bleeds started at approximately 12:45 pm and dosing started, at 1-minute intervals, immediately after. All groups were dosed 30 minutes prior to glucose administration at a dose volume of 10 ml/kg (the dose volume was calculated separately for each individual animal). Thirty minutes after the first dose animals were bled again for a second baseline, or T=0, and immediately dosed with glucose via an i.p. injection. The exact dose volume for glucose was also calculated separately for each individual animal. Glucose measurements were taken at −30 min prior to compound dose, at t=0 (immediately prior to glucose dose), and at 15, 30, 45, 60, 90 min post glucose dose.
Glucose values were entered into an Excel sheet and graphed in GraphPad Prism. The following were calculated from Prism: Change from −30 to 0 BSLN Glucose, Raw Glucose AUC −30 to 90 min, Delta Glucose AUC −30 to 90 min, Raw Glucose AUC 0 to 90 min, Delta Glucose AUC 0 to 90 min.
The assay design is the same as that described above for the C57bl6 mouse IPGTT. The difference is that glucose was dosed PO at 3 g/kg, 7.5 ml/kg of 40% glucose.
Representative compounds of the present invention were tested according to the procedures as described in Biological Example 4, above with results as listed in Table 3, below. […] Where a compound was tested more than once, each result is listed individually.

Compound	EC50 (Human GPR120 short form)	C57 OGTT 3 mg/kg (C57bl/6J mice)
3-(4-[[3-(4-chlorophenyl)-5-(trifluoromethyl)-1,2-thiazol-4-yl]methoxy]-3-methylphenyl)propanoic acid [Cpd 235]	50 nM	
3-(4-[[3-(4-ethylphenyl)-5-(trifluoromethyl)-1,2-thiazol-4-yl]methoxy]-1-benzothiophen-7-yl)propanoic acid [Cpd 92]	50 nM	−39
CCc1ccc(-c2cc(F)sc2COc2ccc(CCC(=O)O)c(C)c2C)cc1 [Cpd 1, 3-(4-[[3-(4-ethylphenyl)-5-fluorothiophen-2-yl]methoxy]-2,3-dimethylphenyl)propanoic acid]	24 nM	
Cc1c(CCC(=O)O)ccc(OCc2sc(F)cc2-c2ccc(Cl)cc2)c1C [Cpd 3, 3-(4-((3-(4-chlorophenyl)-5-fluorothiophen-2-yl)methoxy)-2,3-dimethylphenyl)propanoic acid]	49 nM	
Cc1ccc(-c2nsc(C(F)(F)F)c2COc2c(F)cc(CCC(=O)O)cc2F)c(F)c1 [Cpd 65, 3-(3,5-difluoro-4-[[3-(2-fluoro-4-methylphenyl)-5-(trifluoromethyl)-1,2-thiazol-4-yl]methoxy]phenyl)propanoic acid]	13 nM	
O=C(O)CCc1cc(F)c(OCc2c(-c3ccc(Cl)c(F)c3)nsc2C(F)(F)F)c(F)c1 [Cpd 67, 3-(4-((3-(4-chloro-3-fluorophenyl)-5-(trifluoromethyl)isothiazol-4-yl)methoxy)-3,5-difluorophenyl)propanoic acid]	25 nM	
CCc1ccc(-c2nsc(C(F)(F)F)c2COc2ccc(CCC(=O)O)c(F)c2F)cc1 [Cpd 73, 3-(4-((3-(4-ethylphenyl)-5-(trifluoromethyl)isothiazol-4-yl)methoxy)-2,3-difluorophenyl)propanoic acid]	41 nM	
O=C(O)CCc1cc(F)c(OCc2c(-c3ccc(Cl)cc3F)nsc2C(F)(F)F)c(F)c1 [Cpd 74, 3-(4-((3-(4-chloro-2-fluorophenyl)-5-(trifluoromethyl)isothiazol-4-yl)methoxy)-3,5-difluorophenyl)propanoic acid]	42 nM	
Cc1ccc(-c2nsc(C(F)(F)F)c2COc2c(F)cc(CC(C)C(=O)O)cc2F)c(F)c1 (stereo not shown) [Cpd 76, 3-(3,5-difluoro-4-[[3-(2-fluoro-4-methylphenyl)-5-(trifluoromethyl)-1,2-thiazol-4-yl]methoxy]phenyl)-2-methylpropanoic acid]	42 nM	
CCc1ccc(-c2snc(Cl)c2COc2ccc(CCC(=O)O)c(C)c2C)cc1 [Cpd 85, 3-(4-[[3-chloro-5-(4-ethylphenyl)-1,2-thiazol-4-yl]methoxy]-2,3-dimethylphenyl)propanoic acid]	56 nM	−49
OCCCc1cc(F)c(OCc2c(-c3ccc(Cl)cc3)nsc2C(F)(F)F)c(F)c1 [Cpd 100, 3-(4-[[3-(4-chlorophenyl)-5-(trifluoromethyl)-1,2-thiazol-4-yl]methoxy]-3,5-difluorophenyl)propan-1-ol]	76 nM	−39
OCCCc1ccc(OCc2c(Cl)nsc2-c2ccc(Cl)cc2)c(F)c1F [Cpd 102, 3-(4-((3-chloro-5-(4-chlorophenyl)isothiazol-4-yl)methoxy)-2,3-difluorophenyl)propan-1-ol]	78 nM	−32
O=C(O)CCc1cc(F)c(OCc2c(-c3ccc(Cl)cc3)nsc2C(F)(F)F)c(F)c1F [Cpd 116, 3-(4-((3-(4-chlorophenyl)-5-(trifluoromethyl)isothiazol-4-yl)methoxy)-2,3,5-trifluorophenyl)propanoic acid]	104 nM	
O=C(O)CCc1cc(F)c(OCc2c(-c3ccc(Cl)c(F)c3)nsc2C(F)(F)F)c(F)c1F [Cpd 138, 3-(4-((3-(4-chloro-3-fluorophenyl)-5-(trifluoromethyl)isothiazol-4-yl)methoxy)-2,3,5-trifluorophenyl)propanoic acid]	137 nM	
Cc1c(CCC(=O)O)ccc(OCc2c(-c3ccc(Cl)cc3)nsc2C(F)(F)F)c1C [Cpd 142, 3-(4-((3-(4-chlorophenyl)-5-(trifluoromethyl)isothiazol-4-yl)methoxy)-2,3-dimethylphenyl)propanoic acid]	155 nM	−49
O=C(O)CCc1cc(F)c(OCc2c(-c3ncc(Cl)cc3F)nsc2C(F)(F)F)c(F)c1 [Cpd 153, 3-(4-((3-(5-chloro-3-fluoropyridin-2-yl)-5-(trifluoromethyl)isothiazol-4-yl)methoxy)-3,5-difluorophenyl)propanoic acid]	175 nM	
CCc1cc(CCC(=O)O)ccc1OCc1c(-c2ccc(Cl)cc2)nsc1C(F)(F)F [Cpd 162, 3-(4-[[3-(4-chlorophenyl)-5-(trifluoromethyl)-1,2-thiazol-4-yl]methoxy]-3-ethylphenyl)propanoic acid]	202 nM	
Cc1c(CCC(=O)O)ccc(OCc2c(-c3ncc(Cl)cc3F)nsc2C(F)(F)F)c1C [Cpd 180, 3-(4-((3-(5-chloro-3-fluoropyridin-2-yl)-5-(trifluoromethyl)isothiazol-4-yl)methoxy)-2,3-dimethylphenyl)propanoic acid]	270 nM	
Cc1ccccc1-c1snc(Cl)c1COc1c(F)cc(CCC(=O)O)cc1F [Cpd 193, 3-(4-[[3-chloro-5-(2-methylphenyl)-1,2-thiazol-4-yl]methoxy]-3,5-difluorophenyl)propanoic acid]	344 nM	

Continued by falling EC50 (Human GPR120 short form), values first:

EC50 (Human GPR120 short form)	Compound	C57 OGTT 3 mg/kg (C57bl/6J mice)
603 nM	OCC#Cc1cc(F)c(OCc2c(-c3ccc(Cl)cc3)nsc2C(F)(F)F)c(F)c1 [Cpd 213, 3-(4-[[3-(4-chlorophenyl)-5-(trifluoromethyl)-1,2-thiazol-4-yl]methoxy]-3,5-difluorophenyl)prop-2-yn-1-ol]	
173 nM	O=C(O)CCc1c(F)c(F)c(OCc2c(-c3ccc(Cl)cc3)nsc2C(F)(F)F)c(F)c1F [Cpd 152, 3-(4-((3-(4-chlorophenyl)-5-(trifluoromethyl)isothiazol-4-yl)methoxy)-2,3,5,6-tetrafluorophenyl)propanoic acid]	
133 nM	Cc1c(CCC(=O)O)ccc(OCc2c(-c3ccccc3)nsc2C(F)(F)F)c1C [Cpd 134, 3-(2,3-dimethyl-4-[[3-phenyl-5-(trifluoromethyl)-1,2-thiazol-4-yl]methoxy]phenyl)propanoic acid]	
94 nM	OCCCc1cc(F)c(OCc2c(-c3ccc4c(c3)OCO4)csc2C(F)(F)F)c(F)c1 [Cpd 37, 3-(4-((4-(benzo[d][1,3]dioxol-5-yl)-2-(trifluoromethyl)thiophen-3-yl)methoxy)-3,5-difluorophenyl)propan-1-ol]	
89 nM	CC(Cc1cc(F)c(OCc2c(-c3ccc(Cl)cc3)nsc2C(F)(F)F)c(F)c1)C(=O)O (stereo not shown) [Cpd 108, 3-(4-[[3-(4-chlorophenyl)-5-(trifluoromethyl)-1,2-thiazol-4-yl]methoxy]-3,5-difluorophenyl)-2-methylpropanoic acid]	
71 nM	OCCCc1cc(F)c(OCc2c(-c3ccc4c(c3)OCO4)nsc2C(F)(F)F)c(F)c1 [Cpd 93, 3-(4-[[3-(2H-1,3-benzodioxol-5-yl)-5-(trifluoromethyl)-1,2-thiazol-4-yl]methoxy]-3,5-difluorophenyl)propan-1-ol]	
51 nM	O=C(O)CCc1cc(F)c(OCc2c(-c3ccc(Cl)cc3)nsc2C(F)(F)F)c(F)c1 [Cpd 79, 3-(4-[[3-(4-chlorophenyl)-5-(trifluoromethyl)-1,2-thiazol-4-yl]methoxy]-3,5-difluorophenyl)propanoic acid]	
37 nM	O=C(O)CCc1cc(F)c(OCc2c(C3CCCC3)nsc2C(F)(F)F)c(F)c1 [Cpd 71, 3-(4-[[3-cyclopentyl-5-(trifluoromethyl)-1,2-thiazol-4-yl]methoxy]-3,5-difluorophenyl)propanoic acid]	−37
30 nM	3-(4-[[3-(4-ethylphenyl)-5-(trifluoromethyl)-1,2-thiazol-4-yl]methoxy]-3,5-difluorophenyl)propanoic acid [Cpd 70]	
